According to PubChem BioAssay (NCI):
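Briefly, cells in 96-well plates were exposed to five compound concentrations for 48 h, and endpoints were estimated by linear interpolation. The concentration for full growth arrest is given as TGI.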

What was measured:
Assay in all cases: NCI tumour cell line growth inhibition, 48 h
786-0 renal = system: 786-0 renal
A549 NSCLC = system: A549 NSCLC
ACHN renal = system: ACHN renal
CAKI-1 renal = system: CAKI-1 renal
COLO 205 colon = system: COLO 205 colon
EKVX NSCLC = system: EKVX NSCLC
HCC-2998 colon = system: HCC-2998 colon
HCT-116 colon = system: HCT-116 colon
HCT-15 colon = system: HCT-15 colon
HOP-62 NSCLC = system: HOP-62 NSCLC
HOP-92 NSCLC = system: HOP-92 NSCLC
HS 578T breast = system: HS 578T breast
HT29 colon = system: HT29 colon
IGROV1 ovarian = system: IGROV1 ovarian
K-562 leukemia = system: K-562 leukemia
KM12 colon = system: KM12 colon
LOX IMVI melanoma = system: LOX IMVI melanoma
M14 melanoma = system: M14 melanoma
MCF7 breast = system: MCF7 breast
MDA-MB-435 = system: MDA-MB-435
MDA-N = system: MDA-N
MOLT-4 leukemia = system: MOLT-4 leukemia
NCI-H23 lung = system: NCI-H23 lung
NCI-H460 lung = system: NCI-H460 lung
NCI/ADR-RES ovarian = system: NCI/ADR-RES ovarian
OVCAR-3 ovarian = system: OVCAR-3 ovarian
OVCAR-5 ovarian = system: OVCAR-5 ovarian
OVCAR-8 ovarian = system: OVCAR-8 ovarian
PC-3 prostate = system: PC-3 prostate
RPMI-8226 leukemia = system: RPMI-8226 leukemia
SF-268 CNS = system: SF-268 CNS
SF-295 CNS = system: SF-295 CNS
SF-539 CNS = system: SF-539 CNS
SK-MEL-2 melanoma = system: SK-MEL-2 melanoma
SK-MEL-28 melanoma = system: SK-MEL-28 melanoma
SK-MEL-5 melanoma = system: SK-MEL-5 melanoma
SN12C renal = system: SN12C renal
SNB-19 CNS = system: SNB-19 CNS
SR leukemia = system: SR leukemia
SW-620 colon = system: SW-620 colon
T-47D breast = system: T-47D breast
UACC-257 melanoma = system: UACC-257 melanoma
UACC-62 melanoma = system: UACC-62 melanoma
UO-31 renal = system: UO-31 renal
A498 renal = system: A498 renal
CCRF-CEM leukemia = system: CCRF-CEM leukemia
DU-145 prostate = system: DU-145 prostate
HL-60(TB) leukemia = system: HL-60(TB) leukemia
MALME-3M melanoma = system: MALME-3M melanoma
MDA-MB-231 breast = system: MDA-MB-231 breast
NCI-H226 lung = system: NCI-H226 lung
NCI-H522 lung = system: NCI-H522 lung
OVCAR-4 ovarian = system: OVCAR-4 ovarian
RXF 393 renal = system: RXF 393 renal
SK-OV-3 ovarian = system: SK-OV-3 ovarian
SNB-75 CNS = system: SNB-75 CNS
TK-10 renal = system: TK-10 renal
U251 CNS = system: U251 CNS

## Cc1ccc(-c2ccc(Nc3c4ccccc4nc4ccccc34)cc2)cn1
786-0 renal
  TGI: 3.42 µM
A549 NSCLC
  TGI: 10.3 µM
ACHN renal
  TGI: 6.76 µM
CAKI-1 renal
  TGI: 9.02 µM
COLO 205 colon
  TGI: 12.2 µM
EKVX NSCLC
  TGI: > 100 µM
HCC-2998 colon
  TGI: 44.7 µM
HCT-116 colon
  TGI: 10.3 µM
HCT-15 colon
  TGI: 17.2 µM
HOP-62 NSCLC
  TGI: 3.77 µM
HOP-92 NSCLC
  TGI: 3.28 µM
HS 578T breast
  TGI: 58.3 µM
HT29 colon
  TGI: 4.75 µM
IGROV1 ovarian
  TGI: 18.4 µM
K-562 leukemia
  TGI: 10.7 µM
KM12 colon
  TGI: 19.1 µM
LOX IMVI melanoma
  TGI: 6.54 µM
M14 melanoma
  TGI: 11.2 µM
MCF7 breast
  TGI: 8.91 µM
MDA-MB-435
  TGI: 16 µM
MDA-N
  TGI: 19.6 µM
MOLT-4 leukemia
  TGI: 3.59 µM
NCI-H23 lung
  TGI: 88.7 µM
NCI-H460 lung
  TGI: 5.3 µM
NCI/ADR-RES ovarian
  TGI: 65.6 µM
OVCAR-3 ovarian
  TGI: 6.41 µM
OVCAR-5 ovarian
  TGI: 69.5 µM
OVCAR-8 ovarian
  TGI: > 100 µM
PC-3 prostate
  TGI: 28.8 µM
RPMI-8226 leukemia
  TGI: 4.54 µM
SF-268 CNS
  TGI: > 100 µM
SF-295 CNS
  TGI: 11.9 µM
SF-539 CNS
  TGI: 21.1 µM
SK-MEL-2 melanoma
  TGI: 3.63 µM
SK-MEL-28 melanoma
  TGI: 9.18 µM
SK-MEL-5 melanoma
  TGI: 16.5 µM
SN12C renal
  TGI: 15.3 µM
SNB-19 CNS
  TGI: > 100 µM
SR leukemia
  TGI: 6.56 µM
SW-620 colon
  TGI: 14.9 µM
T-47D breast
  TGI: 5.44 µM
UACC-257 melanoma
  TGI: 28.5 µM
UACC-62 melanoma
  TGI: 11.5 µM
UO-31 renal
  TGI: 13.2 µM

## COC1=CC(=O)C(O)=C(C[C@@]2(C)[C@@H]3CCC[C@H](COC(=O)CCCCCNC(=O)OC(C)(C)C)[C@@]3(C)CC[C@@H]2C)C1=O
786-0 renal
  TGI: > 10 µM
A498 renal
  TGI: > 10 µM
A549 NSCLC
  TGI: > 10 µM
ACHN renal
  TGI: > 10 µM
CAKI-1 renal
  TGI: > 10 µM
CCRF-CEM leukemia
  TGI: 5.29 µM
COLO 205 colon
  TGI: > 10 µM
DU-145 prostate
  TGI: > 10 µM
EKVX NSCLC
  TGI: > 10 µM
HCT-116 colon
  TGI: > 10 µM
HL-60(TB) leukemia
  TGI: > 10 µM
HOP-62 NSCLC
  TGI: > 10 µM
HOP-92 NSCLC
  TGI: > 10 µM
HS 578T breast
  TGI: > 10 µM
HT29 colon
  TGI: > 10 µM
IGROV1 ovarian
  TGI: > 10 µM
K-562 leukemia
  TGI: > 10 µM
KM12 colon
  TGI: > 10 µM
LOX IMVI melanoma
  TGI: > 10 µM
M14 melanoma
  TGI: > 10 µM
MALME-3M melanoma
  TGI: > 10 µM
MCF7 breast
  TGI: > 10 µM
MDA-MB-231 breast
  TGI: > 10 µM
MDA-MB-435
  TGI: > 10 µM
MDA-N
  TGI: > 10 µM
MOLT-4 leukemia
  TGI: > 10 µM
NCI-H226 lung
  TGI: > 10 µM
NCI-H522 lung
  TGI: > 10 µM
OVCAR-3 ovarian
  TGI: > 10 µM
OVCAR-4 ovarian
  TGI: > 10 µM
OVCAR-5 ovarian
  TGI: > 10 µM
OVCAR-8 ovarian
  TGI: > 10 µM
PC-3 prostate
  TGI: > 10 µM
RPMI-8226 leukemia
  TGI: > 10 µM
RXF 393 renal
  TGI: > 10 µM
SF-268 CNS
  TGI: > 10 µM
SF-295 CNS
  TGI: > 10 µM
SK-MEL-2 melanoma
  TGI: > 10 µM
SK-MEL-28 melanoma
  TGI: > 10 µM
SK-MEL-5 melanoma
  TGI: > 10 µM
SK-OV-3 ovarian
  TGI: > 10 µM
SN12C renal
  TGI: > 10 µM
SNB-19 CNS
  TGI: > 10 µM
SNB-75 CNS
  TGI: > 10 µM
SR leukemia
  TGI: > 10 µM
SW-620 colon
  TGI: > 10 µM
T-47D breast
  TGI: > 10 µM
TK-10 renal
  TGI: > 10 µM
U251 CNS
  TGI: > 10 µM
UACC-257 melanoma
  TGI: > 10 µM
UO-31 renal
  TGI: > 10 µM
